Columns and labels:
[1] = Stability in water and in a pH 7.4 buffer; format: physicochemical; settings: after 24 hours
Procedure: A sample of the 15 mg isolated material was evaluated for stability in water and in a pH 7.4 buffer. After 24 hours, the sample in water had 86% remaining and the sample in the pH 7.4 buffer had 92% remaining. The decomposition gave mainly the ring-opened Compound A as a byproduct.
(§1) 3,3-dimethylacrylic acid (96 mg, 0.96 mmol) and HATU (366 mg, 0.96 mmol) were mixed in 2 mL of DMF and 280 μL of DIPEA was added to the mixture. After the addition of Compound A (183 mg, 0.64 mmol), the mixture was stirred for 2 min. Additional DIPEA (280 μL) was added to the solution, and the yellow solution was stirred at room temperature for 2 hr. After the addition of water, the mixture was extracted with EtOAc (4×). The extract was washed with brine (4×), was dried over MgSO4, and was evaporated. […] This material was purified by prep HPLC to obtain 58 mg of II-7 (86% pure) that contained a later eluting byproduct. A sample was assayed for stability in water (63% at the 24-hour time point) and in a pH 7.4 buffer (77% at the 24 hour time point).

[2] = Storage stability in acetonitrile or acetonitrile/water solution at room temperature; format: physicochemical; settings: for decomposition in acetonitrile/water: crude product in acetonitrile/water, kept at room temperature overnight
Procedure: Preparatory HPLC of the crude product gave a mixture of the desired compound in addition to some Compound A (formed during the HPLC separation). After the product was treated with dichloromethane, the solution was dried over MgSO4, and was evaporated to give 15 mg of the ether derivative I-5 as an oily solid (97.7% by HPLC). After the sample was stored for 2 days at room temperature (RT) in acetonitrile solution, it had decomposed to approximately 85% purity with the main byproduct being a ring-opened form of Compound A.
as §1
Geranic acid ([…], 0.96 mmol) and HATU (366 mg, 0.96 mmol) were mixed in 2 mL of DMF. Following the addition of 280 μL of DIPEA to the solution, Compound A (180 mg, 0.64 mmol) was added to the solution, and the mixture was stirred for 2 min. Additional DIPEA (280 μL) was added, and the yellow solution was stirred at room temperature for 2 hr. Following the addition of water, the mixture was extracted with EtOAc (4×). The extract was washed with brine (4×), was dried over MgSO4, and was evaporated. The crude product II-9 appeared by HPLC to be over 70% in one peak.

Question: Which “remaining, stability in pH 7.4 buffer” value [1] does the source give for `COC(=O)COC1(c2ccc(Cl)cc2)c2ccccc2C2=NCCN21` (stereo not shown) [Compound I-5, methyl 2-((5-(4-chlorophenyl)-2,5-dihydro-3H-imidazo[2,1-a]isoindol-5-yl)oxy)acetate] here?
Answer: 92%

Question: And the “remaining, stability in water” value [1]?
Answer: 86%

Question: And the “purity after storage in acetonitrile solution” value ([2]; stored for 2 days at room temperature in acetonitrile solution, initial 97.7% by HPLC)?
Answer: approximately 85%

Question: With `CC(C)=CC(=O)N1CCN=C1c1ccccc1C(=O)c1ccc(Cl)cc1` [II-7, 1-(2-(2-(4-chlorobenzoyl)phenyl)-4,5-dihydro-1H-imidazol-1-yl)-3-methylbut-2-en-1-one] as the molecule, how does the “remaining, stability in pH 7.4 buffer” value [1] read?
Answer: 77%

Question: And the “remaining, stability in water” value [1]?
Answer: 63%

Question: And the decomposition in acetonitrile/water [2]?
Answer: significant decomposition occurred

Question: With `CC(C)=CCC/C(C)=C/C(=O)N1CCN=C1c1ccccc1C(=O)c1ccc(Cl)cc1` [II-9, (E)-1-(2-(2-(4-chlorobenzoyl)phenyl)-4,5-dihydro-1H-imidazol-1-yl)-3,7-dimethylocta-2,6-dien-1-one] as the molecule, how does the decomposition in acetonitrile/water [2] read?
Answer: complete decomposition occurred

— patent publication US20260028340A1 (Supernus Pharmaceuticals, Inc., priority 2023, published 2026)
